In series [1] the test system is mouse contact hypersensitivity. Briefly: DNFB contact hypersensitivity model, ear swelling. The series is classed as in vivo, mice. As to conditions: 0.03 or 0.3 mg/kg enterally 4 hours after DNFB challenge, measured 24 hours after challenge. As to the method: Twenty gram female virus-free Balb/c mice (Jackson Laboratories, Bar Harbor, Me.) housed four to a cage in microisolator cages in Biogen's virus-free animal facility and receiving ad libitum mouse chow and tap water were used for all studies. Mice were anesthetized with ketamine:xylazine (90:10 mg/kg, i.p.). A 3 cm^2 patch of abdominal skin, xiphoid to pubis was exposed by closely shaving the far and the skin was scrubbed with 70% ethanol. A 25 μL volume of 0.5% DNFB in 4:1 v/v acetone:olive oil vehicle is uniformly applied to the bare abdominal skin. The skin was lightly scratched with the applying pipette tip to encourage mild inflammation. […] Twenty four hours after challenge, mice were again anesthetized with ketamine:xylazine and the ear thickness of both ears measured with an engineer's micrometer to an accuracy of 10^−4 inches.
Compounds (100 μL) or appropriate vehicle (Dimethylsulfoxide [DMSO] in isotonic phosphate buffered saline [PBS], 100 μL) were administered orally by gavage 4 hours after challenging the immune response on Day 5. […] The ear swelling response for each mouse was calculated as the difference between its vehicle- and DNFB-challenged ear thickness at 24 hours after challenge. […] Inhibition of the ear swelling response was determined by comparison of treated groups with their vehicle control group. […] Values are expressed as means ± standard error of the mean (SEM).

For series [2], the system named is panel of radioligand, enzyme, and functional assays. The experiment in a line: Panlabs ProfilingScreen, DiscoveryScreen, Immunoscreen and Cerep membrane receptor panel. As to the method:
oMePUPA-V was tested in the Panlabs ProfilingScreen, DiscoveryScreen, and Immunoscreen panel of radioligand, enzyme, and functional assays and in the Cerep membrane receptor panel.

Series [3] can be described thus: Proteolytic stability, in vitro metabolism and in vivo PK studies. The series is classed as in vitro ADME. As to conditions: in vitro metabolism studies and in vivo PK studies in rat, dog and sheep.
For the next series, the target named is VLA-4 (Homo sapiens, UniProt P05556+P13612). The experiment in a line: VCAM-Ig Competitive Binding Assay on human PBLs. Further details: endogenous in cells. As to conditions: Mn+2. An excerpt:
PBLs, were isolated from peripheral blood of humans, sheep and dogs using methods described for sheep PBL (Abraham, W. M. et al. J. Clin. Invest. 93:776-787, 1994). The VCAM-Ig-AP Competitive Binding Assay was used to compare the binding of oMePUPA-V to these different cell types.

Another series has as its target T1, gpIIbIIIa (Homo sapiens, UniProt P05106+P08514).
T1 construct: from tissue; host or cells: platelet rich plasma
Briefly: Platelet aggregation induced by ADP in platelet rich plasma. Format: cell-based. As to the method: Activity against gpIIbIIIa was assessed by means of standard platelet aggregometry using platelet rich plasma. ADP was used to initiate aggregation in the presence of plasma where Ca^+2 and Mg^+2 are the major divalent cations. GRGDSP @ 100 ug/mL was used as a positive control.

T1 sequence (P08514 32-887 limits assumed): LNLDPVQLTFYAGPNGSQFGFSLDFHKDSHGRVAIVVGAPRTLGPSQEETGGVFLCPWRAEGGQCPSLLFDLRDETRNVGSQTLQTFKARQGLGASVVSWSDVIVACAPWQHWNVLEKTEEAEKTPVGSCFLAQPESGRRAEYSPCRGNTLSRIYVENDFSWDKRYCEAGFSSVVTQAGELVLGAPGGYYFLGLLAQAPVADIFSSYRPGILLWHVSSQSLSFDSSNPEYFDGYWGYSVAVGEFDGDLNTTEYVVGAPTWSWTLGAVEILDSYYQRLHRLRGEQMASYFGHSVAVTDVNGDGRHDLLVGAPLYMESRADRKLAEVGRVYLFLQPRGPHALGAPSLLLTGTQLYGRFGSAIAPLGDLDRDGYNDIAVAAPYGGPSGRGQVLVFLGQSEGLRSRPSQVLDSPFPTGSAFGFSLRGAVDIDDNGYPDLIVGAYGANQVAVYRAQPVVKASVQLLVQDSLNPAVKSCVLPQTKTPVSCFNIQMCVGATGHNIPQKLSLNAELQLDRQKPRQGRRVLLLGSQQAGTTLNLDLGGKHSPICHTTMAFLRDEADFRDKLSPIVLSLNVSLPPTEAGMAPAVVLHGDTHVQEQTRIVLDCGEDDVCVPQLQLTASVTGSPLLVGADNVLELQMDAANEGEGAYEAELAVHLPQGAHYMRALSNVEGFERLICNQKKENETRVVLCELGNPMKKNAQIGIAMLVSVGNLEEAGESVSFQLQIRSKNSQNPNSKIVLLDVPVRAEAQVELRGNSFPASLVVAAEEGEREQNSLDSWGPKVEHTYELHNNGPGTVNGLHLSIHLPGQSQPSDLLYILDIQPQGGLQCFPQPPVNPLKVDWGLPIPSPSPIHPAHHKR
T1 sequence (P08514 891-1039 partner limits assumed): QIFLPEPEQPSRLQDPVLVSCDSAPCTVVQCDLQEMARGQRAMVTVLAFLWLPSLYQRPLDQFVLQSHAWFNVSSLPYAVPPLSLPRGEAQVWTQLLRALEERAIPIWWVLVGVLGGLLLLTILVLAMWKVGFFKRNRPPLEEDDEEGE
T1 sequence (P05106 27-788): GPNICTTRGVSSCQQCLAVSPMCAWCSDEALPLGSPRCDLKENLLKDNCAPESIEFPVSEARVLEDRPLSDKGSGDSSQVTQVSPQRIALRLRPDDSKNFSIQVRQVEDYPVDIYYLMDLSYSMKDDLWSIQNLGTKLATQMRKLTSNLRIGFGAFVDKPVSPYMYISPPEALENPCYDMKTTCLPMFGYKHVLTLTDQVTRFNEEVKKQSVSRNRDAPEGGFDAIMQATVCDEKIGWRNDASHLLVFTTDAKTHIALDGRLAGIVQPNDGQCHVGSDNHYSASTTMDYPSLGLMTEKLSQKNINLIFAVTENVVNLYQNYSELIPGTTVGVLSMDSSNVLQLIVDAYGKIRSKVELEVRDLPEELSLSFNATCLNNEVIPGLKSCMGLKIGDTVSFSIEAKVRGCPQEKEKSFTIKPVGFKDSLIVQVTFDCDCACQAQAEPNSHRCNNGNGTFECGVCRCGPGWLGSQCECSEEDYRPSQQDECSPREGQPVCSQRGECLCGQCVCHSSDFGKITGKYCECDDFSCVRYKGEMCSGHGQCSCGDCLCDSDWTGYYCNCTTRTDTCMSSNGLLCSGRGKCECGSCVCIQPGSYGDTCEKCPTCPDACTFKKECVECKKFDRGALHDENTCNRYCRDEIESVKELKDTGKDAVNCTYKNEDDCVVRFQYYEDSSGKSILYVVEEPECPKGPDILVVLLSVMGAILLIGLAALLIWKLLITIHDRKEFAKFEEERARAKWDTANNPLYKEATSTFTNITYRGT
Chain of VLA-4 (P13612 34-1032): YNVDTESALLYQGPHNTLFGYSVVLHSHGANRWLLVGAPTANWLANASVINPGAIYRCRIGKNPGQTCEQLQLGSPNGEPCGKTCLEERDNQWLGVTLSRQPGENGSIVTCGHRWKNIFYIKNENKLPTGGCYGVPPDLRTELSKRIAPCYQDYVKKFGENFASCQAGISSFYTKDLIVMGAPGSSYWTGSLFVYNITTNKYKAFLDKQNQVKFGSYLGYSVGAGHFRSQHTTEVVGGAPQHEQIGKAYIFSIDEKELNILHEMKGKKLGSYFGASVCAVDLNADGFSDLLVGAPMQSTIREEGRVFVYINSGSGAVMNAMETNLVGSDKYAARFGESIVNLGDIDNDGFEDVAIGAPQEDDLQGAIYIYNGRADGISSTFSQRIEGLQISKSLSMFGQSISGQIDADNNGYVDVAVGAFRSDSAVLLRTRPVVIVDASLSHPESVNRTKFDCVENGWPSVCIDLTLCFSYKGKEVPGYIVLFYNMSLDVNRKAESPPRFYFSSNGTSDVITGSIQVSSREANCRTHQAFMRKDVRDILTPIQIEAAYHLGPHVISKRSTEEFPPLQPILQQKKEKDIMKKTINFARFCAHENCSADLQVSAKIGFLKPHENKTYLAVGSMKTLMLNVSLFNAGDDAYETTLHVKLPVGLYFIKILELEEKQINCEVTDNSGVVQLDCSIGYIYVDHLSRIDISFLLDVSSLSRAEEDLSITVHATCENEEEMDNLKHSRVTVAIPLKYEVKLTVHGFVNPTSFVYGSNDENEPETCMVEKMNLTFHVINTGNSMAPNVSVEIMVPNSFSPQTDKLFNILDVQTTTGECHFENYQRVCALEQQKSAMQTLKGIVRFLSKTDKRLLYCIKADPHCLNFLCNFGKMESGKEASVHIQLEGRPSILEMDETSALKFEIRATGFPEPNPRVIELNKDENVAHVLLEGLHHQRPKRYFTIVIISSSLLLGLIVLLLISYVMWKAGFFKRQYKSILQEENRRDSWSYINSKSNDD
Chain of VLA-4 (P05556 21-798): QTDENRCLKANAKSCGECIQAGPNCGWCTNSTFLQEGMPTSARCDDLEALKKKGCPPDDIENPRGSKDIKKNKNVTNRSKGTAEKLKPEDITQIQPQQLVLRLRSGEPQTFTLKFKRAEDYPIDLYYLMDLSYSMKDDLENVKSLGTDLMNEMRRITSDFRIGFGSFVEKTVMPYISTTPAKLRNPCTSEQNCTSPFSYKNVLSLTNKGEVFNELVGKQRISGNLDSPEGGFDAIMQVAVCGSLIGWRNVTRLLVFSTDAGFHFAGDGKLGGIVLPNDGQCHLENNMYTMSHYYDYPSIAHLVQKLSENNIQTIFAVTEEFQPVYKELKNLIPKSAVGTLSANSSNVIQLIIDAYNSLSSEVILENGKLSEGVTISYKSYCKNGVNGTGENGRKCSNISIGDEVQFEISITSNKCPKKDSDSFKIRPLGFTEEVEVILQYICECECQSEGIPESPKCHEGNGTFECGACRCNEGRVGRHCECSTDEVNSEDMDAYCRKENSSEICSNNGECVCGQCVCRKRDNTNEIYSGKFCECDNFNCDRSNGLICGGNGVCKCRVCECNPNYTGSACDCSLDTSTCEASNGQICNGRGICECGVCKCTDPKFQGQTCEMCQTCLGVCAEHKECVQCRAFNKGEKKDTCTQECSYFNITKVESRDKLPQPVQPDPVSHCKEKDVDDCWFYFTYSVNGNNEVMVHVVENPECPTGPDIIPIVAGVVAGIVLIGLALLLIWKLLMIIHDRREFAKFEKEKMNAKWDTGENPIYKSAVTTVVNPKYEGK

Take `Cc1ccccc1NC(=O)Nc1ccc(CC(=O)N2CCC[C@H]2C(=O)N[C@H](C)CC(=O)O)cc1` [oMePUPA-V]: the “inhibition of ear swelling response (in words)” value in series [1] is given as “significantly inhibited”. Moreover, the “In vitro pharma screen 85 tests” value in series [2] is listed as “clean”. In addition, in series [2] (at 10 μM), the “activity in Panlabs and Cerep panels” value was “No significant activity”. In series [3], the proteolytic stability result is listed as “proteolytically stable”. The compound further yielded an IC50 at VLA-4 of 6 ± 1 nM. Moreover, the “measurable activity against gpIIbIIIa” value at gpIIbIIIa was greater than 100 µM. Further, on gpIIbIIIa (@ 100 μM, Ca+2/Mg+2), the “inhibition, platelets (IIbIIIa) fibrinogen aggregation” value is listed as “no inhibition @”. The “inhibition of ADP-induced platelet aggregation (in words)” value at gpIIbIIIa (three doses 1, 10 and 100 μM) is on record as “did not inhibit”.

As a reminder, the IC50 is the point on the concentration scale where inhibition reaches its midpoint. A low value points to higher potency.

The values are drawn from US6495525B1, “VLA-4 inhibitor: oMePUPA-V” (Biogen, Inc., priority 1998, dated 2002).
